According to US11083709B2, “Compounds, compositions, and methods of increasing CFTR activity” (Proteostasis Therapeutics, Inc., priority 2015, dated 2021):

molecular target: T1, ΔF508-CFTR (Homo sapiens, UniProt P13569, DEL508-508); assay: hBE equivalent current (Ieq) assay, primary lung epithelial cells homozygous for ΔF508; format: cell-based; details: compound at 10 uM and VX-809 at 1 uM, relative to VX-809 (1 uM); 24 h treatment
T1 construct: primary lung epithelial cells (hBEs) homozygous for the Cystic Fibrosis-causing ΔF508 mutation; endogenous in cells; host or cells: primary lung epithelial cells (hBEs) homozygous for ΔF508
T1 sequence (P13569 with tags, fused parts or gaps DEL508-508): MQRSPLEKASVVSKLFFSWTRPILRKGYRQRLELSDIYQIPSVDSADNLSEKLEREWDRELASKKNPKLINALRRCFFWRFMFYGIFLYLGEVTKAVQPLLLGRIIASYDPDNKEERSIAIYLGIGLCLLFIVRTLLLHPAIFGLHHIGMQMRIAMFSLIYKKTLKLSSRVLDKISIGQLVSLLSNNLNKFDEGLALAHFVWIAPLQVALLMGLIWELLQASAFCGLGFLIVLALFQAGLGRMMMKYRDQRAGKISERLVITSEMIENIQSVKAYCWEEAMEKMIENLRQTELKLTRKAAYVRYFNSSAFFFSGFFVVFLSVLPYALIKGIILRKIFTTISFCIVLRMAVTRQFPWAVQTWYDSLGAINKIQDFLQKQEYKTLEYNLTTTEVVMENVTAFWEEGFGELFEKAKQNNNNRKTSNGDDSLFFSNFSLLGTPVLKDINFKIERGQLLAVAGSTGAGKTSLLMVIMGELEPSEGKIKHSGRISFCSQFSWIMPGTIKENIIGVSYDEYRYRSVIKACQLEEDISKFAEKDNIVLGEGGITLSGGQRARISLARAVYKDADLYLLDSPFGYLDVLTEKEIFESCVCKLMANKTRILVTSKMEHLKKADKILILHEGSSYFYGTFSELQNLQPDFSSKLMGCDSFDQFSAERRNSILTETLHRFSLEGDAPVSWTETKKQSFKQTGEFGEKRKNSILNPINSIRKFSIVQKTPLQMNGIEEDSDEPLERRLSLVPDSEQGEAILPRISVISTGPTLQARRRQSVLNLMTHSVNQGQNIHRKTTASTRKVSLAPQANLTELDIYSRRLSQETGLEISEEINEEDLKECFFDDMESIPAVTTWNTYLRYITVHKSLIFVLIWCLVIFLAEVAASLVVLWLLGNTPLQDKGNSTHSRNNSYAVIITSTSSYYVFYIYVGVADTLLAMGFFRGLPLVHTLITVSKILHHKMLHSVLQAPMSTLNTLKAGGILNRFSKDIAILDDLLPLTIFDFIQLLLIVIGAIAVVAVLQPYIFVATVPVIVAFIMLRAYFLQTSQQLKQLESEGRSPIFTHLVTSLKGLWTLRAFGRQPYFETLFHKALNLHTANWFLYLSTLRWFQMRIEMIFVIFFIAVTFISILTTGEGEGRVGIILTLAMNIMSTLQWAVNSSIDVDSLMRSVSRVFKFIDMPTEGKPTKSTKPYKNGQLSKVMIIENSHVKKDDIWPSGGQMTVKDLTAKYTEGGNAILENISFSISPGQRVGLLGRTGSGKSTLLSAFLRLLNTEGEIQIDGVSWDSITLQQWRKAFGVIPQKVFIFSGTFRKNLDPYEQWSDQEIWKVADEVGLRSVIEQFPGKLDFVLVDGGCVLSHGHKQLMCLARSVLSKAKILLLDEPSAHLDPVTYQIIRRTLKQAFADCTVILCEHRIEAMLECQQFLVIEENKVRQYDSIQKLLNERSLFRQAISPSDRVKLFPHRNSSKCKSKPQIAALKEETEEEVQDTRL
Description: Primary lung epithelial cells homozygous for the Cystic Fibrosis-causing ΔF508 mutation were differentiated for a minimum of 4 weeks in an air-liquid interface on Costar 24 well HTS filter plates prior to the equivalent current (Ieq) measurements. Cells were apically mucus-washed for 30 minutes 24h prior to treatment with compounds. The basolateral media was removed and replaced with media containing the compound of interest diluted to its final concentration from DMSO stocks. Treated cells were incubated at 37° C. and 5% CO2 for 24 hours. At the end of the treatment period, the media was changed to the Ieq experimental solution for 30 minutes before the experiment and plates are maintained in a CO2-free incubator during this period. The plates containing the cells were then placed in pre-warmed heating blocks at 36° C.±0.5 for 15 minutes before measurements are taken. The transepithelial voltage (VT) and conductance (GT) were measured using a custom 24 channel current clamp (TECC-24) with 24 well electrode manifold. The Ieq assay measurements were made following additions with standardized time periods: • 1. The baseline VT and GT values were measured for approximately 20 minutes. • 2. Benzamil was added to block ENaC for 15 minutes. • 3. Forskolin plus VX-770 (ivacaftor) were added to maximally activate ΔF508-CFTR for 27 minutes. • 4. Bumetanide was added to inhibit the NaK2Cl cotransporter and shut-off secretion of chloride.
The activity data captured was the area under the curve (AUC) for the traces of the equivalent chloride current. The AUC was collected from the time of the forskolin/VX-770 addition until the inhibition by bumetanide addition. Correction in response to compound treatment was scored as the increase in the AUC for compound-treated samples over that of vehicle-treated samples.
The results are shown below in Table 2. ++ indicates activity ≥25% run at 10 uM of VX-809 at 1 uM, + indicates activity 10 to <25% run at 10 uM of VX-809 at 1 uM, ** indicates activity ≥200% of VX-809 (1 uM) with compound at 10 uM and VX-809 at 1 uM; * indicates activity 100-200% of VX-809 (1 uM) with compound at 10 uM and VX-809 at 1 uM. ^## indicates activity ≥200% of VX-809 (3 uM) with compound at 10 uM and VX-809 at 3 uM; ^# indicates activity 100-200% of VX-809 (3 uM) with compound at 10 uM and VX-809 at 3 uM.

SMILES | leq: activity of compound with VX-809, % of VX-809 (AUC of equivalent chloride current)
O=C(N[C@H]1C[C@@H](n2cc(CO)nn2)C1)c1cc(-c2ccccc2)no1 [Example 29, N-(cis-3-(4-(hydroxymethyl)-1H-1,2,3-triazol-1-yl)cyclobutyl)-3-phenylisoxazole-5-carboxamide] | ** (** indicates activity ≥200% of VX-809 (1 uM) with compound at 10 uM and VX-809 at 1 uM)
C[C@@H](O)c1nnc([C@H]2C[C@H](NC(=O)c3cc(-c4ccc(F)cc4)no3)C2)o1 [Example 36, 3-(4-fluorophenyl)-N-(trans-3-(5-((R)-1-hydroxyethyl)-1,3,4-oxadiazol-2-yl)cyclobutyl)isoxazole-5-carboxamide] | * (* indicates activity 100-200% of VX-809 (1 uM) with compound at 10 uM and VX-809 at 1 uM)
C[C@@H](O)c1nnc(CC2CC(NC(=O)c3cc(-c4ccccc4)no3)C2)o1 (stereo partly drawn) [Example 37, N-((1S,3s)-3-((5-((R)-1-hydroxyethyl)-1,3,4-oxadiazol-2-yl)methyl)cyclobutyl)-3-phenylisoxazole-5-carboxamide] | ** (** indicates activity ≥200% of VX-809 (1 uM) with compound at 10 uM and VX-809 at 1 uM)
C[C@@H](O)c1nnc(CC2CC(NC(=O)c3cc(-c4ccc(F)cc4)no3)C2)o1 (stereo partly drawn) [Example 40, 3-(4-Fluorophenyl)-N-[(1r,3r)-3-([5-[(1R)-1-hydroxyethyl]-1,3,4-oxadiazol-2-yl]methyl)cyclobutyl]-1,2-oxazole-5-carboxamide] | ** (** indicates activity ≥200% of VX-809 (1 uM) with compound at 10 uM and VX-809 at 1 uM)
C[C@@H](O)c1nnc(CC2CC(NC(=O)c3cc(-c4ccccc4)no3)C2)s1 (stereo partly drawn) [Example 41, 3-Phenyl-N-[(1s,3s)-3-([5-[(1R)-1-hydroxyethyl]-1,3,4-thiadiazol-2-yl]methyl)cyclobutyl]-1,2-oxazole-5-carboxamide] | ** (** indicates activity ≥200% of VX-809 (1 uM) with compound at 10 uM and VX-809 at 1 uM)
C[C@@H](O)c1nnc(CC2CC(NC(=O)c3cc(-c4ccccc4)no3)C2)s1 (stereo partly drawn) [Example 42, 3-Phenyl-N-[(1r,3r)-3-([5-[(1R)-1-hydroxyethyl]-1,3,4-thiadiazol-2-yl]methyl)cyclobutyl]-1,2-oxazole-5-carboxamide] | * (* indicates activity 100-200% of VX-809 (1 uM) with compound at 10 uM and VX-809 at 1 uM)
C[C@@H](O)c1nnc(CC2CC(NC(=O)c3cc(-c4ccc(F)cc4)no3)C2)s1 (stereo partly drawn) [Example 43, 3-(4-Fluorophenyl)-N-[(1s,3s)-3-([5-[(1R)-1-hydroxyethyl]-1,3,4-thiadiazol-2-yl]methyl)cyclobutyl]-1,2-oxazole-5-carboxamide] | ** (** indicates activity ≥200% of VX-809 (1 uM) with compound at 10 uM and VX-809 at 1 uM)
C[C@@H](O)c1nnc(CC2CC(NC(=O)c3cc(-c4ccc(F)cc4)no3)C2)s1 (stereo partly drawn) [Example 44, 3-(4-Fluorophenyl)-N-[(1r,3r)-3-([5-[(1R)-1-hydroxyethyl]-1,3,4-thiadiazol-2-yl]methyl)cyclobutyl]-1,2-oxazole-5-carboxamide] | ** (** indicates activity ≥200% of VX-809 (1 uM) with compound at 10 uM and VX-809 at 1 uM)
C[C@@H](O)c1nnc(C[C@H]2C[C@@H](NC(=O)c3cc(-c4cccs4)no3)C2)o1 [Example 45, N-[(1s,3s)-3-([5-[(1R)-1-Hydroxyethyl]-1,3,4-oxadiazol-2-yl]methyl)cyclobutyl]-3-(thiophen-2-yl)-1,2-oxazole-5-carboxamide] | * (* indicates activity 100-200% of VX-809 (1 uM) with compound at 10 uM and VX-809 at 1 uM)
C[C@@H](O)c1nnc(C[C@H]2C[C@H](NC(=O)c3cc(-c4cccs4)no3)C2)o1 [Example 46, N-[(1r,3r)-3-([5-[(1R)-1-Hydroxyethyl]-1,3,4-oxadiazol-2-yl]methyl)cyclobutyl]-3-(thiophen-2-yl)-1,2-oxazole-5-carboxamide] | * (* indicates activity 100-200% of VX-809 (1 uM) with compound at 10 uM and VX-809 at 1 uM)
C[C@@H](O)c1nnc([C@H]2C[C@H](NC(=O)c3onc(-c4ccccc4)c3F)C2)o1 [Example 50, 4-Fluoro-3-phenyl-N-[(1r,3r)-3-[5-[(1R)-1-hydroxyethyl]-1,3,4-oxadiazol-2-yl]cyclobutyl]-1,2-oxazole-5-carboxamide] | * (* indicates activity 100-200% of VX-809 (1 uM) with compound at 10 uM and VX-809 at 1 uM)
C[C@H](O)c1cnnn1C[C@H]1C[C@@H](NC(=O)c2cc(-c3ccccc3)no2)C1 [Example 57, 3-Phenyl-N-[(1s,3s)-3-([5-[(1S)-1-hydroxyethyl]-1H-1,2,3-triazol-1-yl]methyl)cyclobutyl]-1,2-oxazole-5-carboxamide] | ** (** indicates activity ≥200% of VX-809 (1 uM) with compound at 10 uM and VX-809 at 1 uM)
C[C@H](O)c1cn(C[C@H]2C[C@@H](NC(=O)c3cc(-c4ccccc4)no3)C2)nn1 [Example 58, 3-Phenyl-N-[(1s,3s)-3-([4-[(1S)-1-hydroxyethyl]-1H-1,2,3-triazol-1-yl]methyl)cyclobutyl]-1,2-oxazole-5-carboxamide] | * (* indicates activity 100-200% of VX-809 (1 uM) with compound at 10 uM and VX-809 at 1 uM)

test system: CFTR in R117H/F508del HBEs; assay: Ussing measurements, R117H/F508del HBEs; format: cell-based, human; details: Ussing; Compound A 10 uM, ivacaftor 1 uM
Description: (§1) As discussed above, Ussing measurements was used to measure CFTR activity. In this method, primary lung epithelial cells (hBEs) with a Cystic Fibrosis-causing class III mutation were differentiated for a minimum of 4 weeks in an air-liquid interface on SnapWell™ filter plates prior to the Ussing measurements. Cells were apically mucus-washed for 30 minutes prior to treatment with compounds. The basolateral media was removed and replaced with media containing the compound of interest diluted to its final concentration from DMSO stocks. Treated cells were incubated at 37° C. and 5% CO2 for 24 hours. At the end of the treatment period, the cells on filters were transferred to the Ussing chamber and equilibrated for 30 minutes. The short-circuit current was measured in voltage clamp-mode (Vhold=0 mV), and the entire assay was conducted at a temperature of 36° C.-36.5° C. Once the voltages stabilized, the chambers were clamped, and data was recorded by pulse readings every 5 seconds. Following baseline current stabilization, the following additions were applied and the changes in current and resistance of the cells was monitored: • 1. Benzamil to the apical chamber to inhibit ENaC sodium channel. • 2. Forskolin to both chambers to activate ΔF508-CFTR by phosphorylation. • 3. Ivacaftor or Genistein to the apical chamber to potentiate ΔF508-CFTR channel opening. • 4. CFTRinh-172 to the apical chamber to inhibit ΔF508-CFTR Cl-conductance.
(§2) The forskolin-sensitive current and inhibitable current (that potentiated current that is blocked by CFTRinh-172) were measured as the specific activity of the ΔF508-CFTR channel, and increase in response to compound in this activity over that observed in vehicle-treated samples were identified as the correction of ΔF508-CFTR function imparted by the compound tested.
(§3) The results are shown below in Tables 5 and 6. Compound A is 10 uM and VX-809 is 3 uM and ivacaftor is 1 uM.

SMILES | Activity in R117H/F508del HBEs (relative to ivacaftor activity)
CC(C)(C)c1cc(C(C)(C)C)c(NC(=O)c2c[nH]c3ccccc3c2=O)cc1O [ivacaftor, reference compound] | 100%

test system: CFTR in G551D/F508del HBEs; assay: Ussing measurements, G551D/F508del HBEs; format: cell-based, human; details: Ussing; Compound A 10 uM, ivacaftor 1 uM
Description: as §1, §2, §3

SMILES | Activity in G551D/F508del HBEs (relative to ivacaftor activity)
CC(C)(C)c1cc(C(C)(C)C)c(NC(=O)c2c[nH]c3ccccc3c2=O)cc1O [ivacaftor, reference compound] | 100%
